Experiments:
Adrenergic α1B = Adrenergic α1B (Rattus norvegicus, UniProt P15823); test: Lead Profiling Screen radioligand binding
P450 1A2 = P450 1A2 (Homo sapiens, UniProt P05177); test: cytochrome P450 inhibition; assay type: in vitro ADME
CHT = CHT (Mus musculus, UniProt Q8BGY9); test: choline uptake in mouse forebrain synaptosomes; assay type: biochemical; settings: ML352 at 300 nM in saturation choline transport assays
[1] = target: Sertonin (5-Hydroxytrptamine) 5-HT2B (Homo sapiens, UniProt P41595); test: Lead Profiling Screen radioligand binding
Sertonin (5-Hydroxytrptamine) 5-HT2B, sequence (P41595 whole entry): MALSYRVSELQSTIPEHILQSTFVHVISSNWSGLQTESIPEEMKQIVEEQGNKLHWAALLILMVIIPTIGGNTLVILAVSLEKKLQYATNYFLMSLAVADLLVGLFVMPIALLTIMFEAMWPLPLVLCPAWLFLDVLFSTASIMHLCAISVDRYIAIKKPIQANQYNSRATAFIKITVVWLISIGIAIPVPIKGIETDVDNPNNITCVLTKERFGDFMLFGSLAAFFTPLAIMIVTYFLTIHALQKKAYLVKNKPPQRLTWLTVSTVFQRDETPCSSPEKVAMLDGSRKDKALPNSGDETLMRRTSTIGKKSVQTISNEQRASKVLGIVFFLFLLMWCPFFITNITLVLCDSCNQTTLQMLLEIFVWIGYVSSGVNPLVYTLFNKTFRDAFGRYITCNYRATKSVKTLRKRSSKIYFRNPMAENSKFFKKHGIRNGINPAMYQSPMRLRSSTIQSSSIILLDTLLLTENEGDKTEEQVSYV

[2] = test system: Calcium Channel L-Type, Benzothiazepine; test: Lead Profiling Screen radioligand binding; settings: 10 μM ML352

Adrenergic α1B, sequence (P15823 whole entry): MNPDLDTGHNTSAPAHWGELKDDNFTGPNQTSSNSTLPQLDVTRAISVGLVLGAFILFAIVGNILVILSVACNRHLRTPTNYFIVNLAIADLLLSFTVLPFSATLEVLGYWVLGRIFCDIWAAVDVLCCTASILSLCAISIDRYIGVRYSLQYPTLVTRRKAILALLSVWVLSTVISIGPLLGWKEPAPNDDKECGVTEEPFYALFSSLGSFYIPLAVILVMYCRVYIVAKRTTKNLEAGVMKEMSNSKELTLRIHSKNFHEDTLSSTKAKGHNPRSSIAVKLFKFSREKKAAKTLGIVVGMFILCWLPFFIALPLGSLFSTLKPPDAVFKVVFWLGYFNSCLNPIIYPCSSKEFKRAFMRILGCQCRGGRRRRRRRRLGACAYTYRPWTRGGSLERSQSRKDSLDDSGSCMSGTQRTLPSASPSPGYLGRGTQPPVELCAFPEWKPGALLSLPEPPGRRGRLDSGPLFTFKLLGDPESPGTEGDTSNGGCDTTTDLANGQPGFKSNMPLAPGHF
P450 1A2, sequence (P05177 whole entry): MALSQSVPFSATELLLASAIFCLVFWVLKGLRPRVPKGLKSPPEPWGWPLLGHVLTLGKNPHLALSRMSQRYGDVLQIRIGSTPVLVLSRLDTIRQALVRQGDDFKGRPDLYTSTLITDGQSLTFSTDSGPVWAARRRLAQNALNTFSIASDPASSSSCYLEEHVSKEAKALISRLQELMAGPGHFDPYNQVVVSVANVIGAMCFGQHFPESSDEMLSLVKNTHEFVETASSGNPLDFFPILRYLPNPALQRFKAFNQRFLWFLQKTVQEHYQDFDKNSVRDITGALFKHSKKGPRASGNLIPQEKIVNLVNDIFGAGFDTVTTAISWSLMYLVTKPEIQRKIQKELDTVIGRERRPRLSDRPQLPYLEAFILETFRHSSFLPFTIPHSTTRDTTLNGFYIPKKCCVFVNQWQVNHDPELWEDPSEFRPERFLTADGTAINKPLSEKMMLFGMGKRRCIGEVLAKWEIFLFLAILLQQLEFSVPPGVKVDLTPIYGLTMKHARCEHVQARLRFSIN
CHT, sequence (Q8BGY9 whole entry): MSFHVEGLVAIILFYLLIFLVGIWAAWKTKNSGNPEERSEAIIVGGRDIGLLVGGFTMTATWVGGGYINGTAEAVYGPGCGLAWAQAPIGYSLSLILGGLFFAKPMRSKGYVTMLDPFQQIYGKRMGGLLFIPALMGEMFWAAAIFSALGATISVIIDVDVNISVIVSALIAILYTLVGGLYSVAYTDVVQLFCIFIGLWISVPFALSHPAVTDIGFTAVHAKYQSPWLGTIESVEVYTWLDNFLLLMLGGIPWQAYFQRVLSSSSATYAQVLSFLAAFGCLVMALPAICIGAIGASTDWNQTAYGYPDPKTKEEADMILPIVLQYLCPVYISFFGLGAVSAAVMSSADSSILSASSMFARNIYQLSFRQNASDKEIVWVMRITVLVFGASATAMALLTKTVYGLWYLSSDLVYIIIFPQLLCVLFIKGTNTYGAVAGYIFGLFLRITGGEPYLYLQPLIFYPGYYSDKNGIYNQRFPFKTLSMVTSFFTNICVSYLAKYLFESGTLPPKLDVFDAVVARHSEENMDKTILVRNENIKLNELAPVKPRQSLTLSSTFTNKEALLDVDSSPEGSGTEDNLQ

In the case of COc1ccc(C(=O)NCc2cc(C(C)C)no2)cc1OC1CCN(C)CC1 [ML352, N-((3-isopropylisoxazol-5-yl)methyl)-4-methoxy-3-((1-methylpiperidin-4-yl)oxy)benzamide], the inhibition at 10 µM (Adrenergic α1B) is reported as 3%, the IC50 (P450 1A2) is reported as > 30 µM and the “mode of choline uptake inhibition” value (CHT) is reported as “noncompetitively inhibits”. For the same compound, the inhibition at 10 µM [1] was -7% and the “% inhibition” value [2] was 3%.

From article PMC4367188 (ACS Chemical Neuroscience, 2015)
